In PubChem BioAssay AID1963432 (Molecular Pharmacology Branch, DTP, NCI, 2024):

Test system: SYO-1 complex spheroid growth, percent test/control
Test: Anticancer human tumor SYO-1 cell line growth inhibition [Asc];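 also: compound exposure lasted 7 days after spheroids grew 3 days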;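 as to viability, T/C: 100% = DMSO vehicle control viability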
Conditions: for IC50: curve of first compound; for viability, T/C: stronger effect = lower value
Procedure, shortened: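 Stromal components (HUVEC and hMSC) are co-assembled with the cancer cells into multicellular spheroids. Drugs are then added singly or paired, at concentrations falling by half-log increments from a clinically achievable maximum, capped at 10 microM without known Cmax.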

[1] = second compound 0.0316 µM, first compound 0.00316 µM
[2] = second compound 0.0316 µM, first compound 0.01 µM
[3] = second compound 0.0316 µM, first compound 0.0316 µM
[4] = second compound 0.0316 µM, first compound 0.1 µM
[5] = second compound 0.0316 µM, first compound 0.316 µM
[6] = second compound 0.0316 µM, first compound 1 µM
[7] = second compound 0.1 µM, first compound 0.00316 µM
[8] = second compound 0.1 µM, first compound 0.01 µM
[9] = second compound 0.1 µM, first compound 0.0316 µM
[10] = second compound 0.1 µM, first compound 0.1 µM
[11] = second compound 0.1 µM, first compound 0.316 µM
[12] = second compound 0.1 µM, first compound 1 µM
[13] = second compound 0.316 µM, first compound 0.00316 µM
[14] = second compound 0.316 µM, first compound 0.01 µM
[15] = second compound 0.316 µM, first compound 0.0316 µM
[16] = second compound 0.316 µM, first compound 0.1 µM
[17] = second compound 0.316 µM, first compound 0.316 µM
[18] = second compound 0.316 µM, first compound 1 µM
[19] = second compound 1 µM, first compound 0.00316 µM
[20] = second compound 1 µM, first compound 0.01 µM
[21] = second compound 1 µM, first compound 0.0316 µM
[22] = second compound 1 µM, first compound 0.1 µM
[23] = second compound 1 µM, first compound 0.316 µM
[24] = second compound 1 µM, first compound 1 µM
[25] = second compound 3.16 µM, first compound 0.00316 µM
[26] = second compound 3.16 µM, first compound 0.01 µM
[27] = second compound 3.16 µM, first compound 0.0316 µM
[28] = second compound 3.16 µM, first compound 0.1 µM
[29] = second compound 3.16 µM, first compound 0.316 µM
[30] = second compound 3.16 µM, first compound 1 µM
[31] = second compound 10 µM, first compound 0.00316 µM
[32] = second compound 10 µM, first compound 0.01 µM
[33] = second compound 10 µM, first compound 0.0316 µM
[34] = second compound 10 µM, first compound 0.1 µM
[35] = second compound 10 µM, first compound 0.316 µM
[36] = second compound 10 µM, first compound 1 µM

SMILES: CCN1CCN(Cc2ccc(Nc3ncc(F)c(-c4cc(F)c5nc(C)n(C(C)C)c5c4)n3)nc2)CC1 + Cc1c(S(C)(=O)=O)c(-c2cc(F)cc(N3CCN(c4ccc(NS(=O)(=O)c5ccc(NC(CCN6CCC(C(=O)OCCCP(=O)(O)O)CC6)CSc6ccccc6)c(S(=O)(=O)C(F)(F)F)c5)cc4)CC3)c2)c(-c2ccc(Cl)cc2)n1C(C)C
- IC50 (second compound 0.0316 µM): > 1000 nM
- IC50 (second compound 0.1 µM): > 1000 nM
- IC50 (second compound 0.316 µM): > 1000 nM
- IC50 (second compound 1 µM): > 1000 nM
- IC50 (second compound 3.16 µM): > 1000 nM
- IC50 (second compound 10 µM): > 1000 nM
- viability, T/C [1]: 102%
- viability, T/C [2]: 99.2%
- viability, T/C [3]: 109%
- viability, T/C [4]: 111%
- viability, T/C [5]: 121%
- viability, T/C [6]: 106%
- viability, T/C [7]: 99.8%
- viability, T/C [8]: 101%
- viability, T/C [9]: 97.8%
- viability, T/C [10]: 113%
- viability, T/C [11]: 116%
- viability, T/C [12]: 109%
- viability, T/C [13]: 103%
- viability, T/C [14]: 99.1%
- viability, T/C [15]: 108%
- viability, T/C [16]: 108%
- viability, T/C [17]: 114%
- viability, T/C [18]: 99.4%
- viability, T/C [19]: 99.7%
- viability, T/C [20]: 105%
- viability, T/C [21]: 103%
- viability, T/C [22]: 106%
- viability, T/C [23]: 115%
- viability, T/C [24]: 95.1%
- viability, T/C [25]: 92.7%
- viability, T/C [26]: 93.7%
- viability, T/C [27]: 110%
- viability, T/C [28]: 107%
- viability, T/C [29]: 110%
- viability, T/C [30]: 92.2%
- viability, T/C [31]: 87.5%
- viability, T/C [32]: 82.5%
- viability, T/C [33]: 80%
- viability, T/C [34]: 94.2%
- viability, T/C [35]: 101%
- viability, T/C [36]: 86.6%

SMILES: Cn1ncnc1[C@H]1c2n[nH]c(=O)c3cc(F)cc(c23)N[C@@H]1c1ccc(F)cc1 + Cc1c(S(C)(=O)=O)c(-c2cc(F)cc(N3CCN(c4ccc(NS(=O)(=O)c5ccc(NC(CCN6CCC(C(=O)OCCCP(=O)(O)O)CC6)CSc6ccccc6)c(S(=O)(=O)C(F)(F)F)c5)cc4)CC3)c2)c(-c2ccc(Cl)cc2)n1C(C)C
- IC50 (second compound 0.0316 µM): 19.3 nM
- IC50 (second compound 0.1 µM): 18.1 nM
- IC50 (second compound 0.316 µM): 15.3 nM
- IC50 (second compound 1 µM): 10.2 nM
- IC50 (second compound 3.16 µM): 5.98 nM
- IC50 (second compound 10 µM): 4.59 nM
- viability, T/C (second compound 0.0316 µM, first compound 0.000316 µM): 108%
- viability, T/C (second compound 0.0316 µM, first compound 0.001 µM): 96.5%
- viability, T/C [1]: 99.6%
- viability, T/C [2]: 80%
- viability, T/C [3]: 27.4%
- viability, T/C [4]: 6.64%
- viability, T/C (second compound 0.1 µM, first compound 0.000316 µM): 97.6%
- viability, T/C (second compound 0.1 µM, first compound 0.001 µM): 99%
- viability, T/C [7]: 87.1%
- viability, T/C [8]: 85.2%
- viability, T/C [9]: 17.2%
- viability, T/C [10]: 4.83%
- viability, T/C (second compound 0.316 µM, first compound 0.000316 µM): 97.1%
- viability, T/C (second compound 0.316 µM, first compound 0.001 µM): 95.4%
- viability, T/C [13]: 94.5%
- viability, T/C [14]: 73.6%
- viability, T/C [15]: 9.3%
- viability, T/C [16]: 3.79%
- viability, T/C (second compound 1 µM, first compound 0.000316 µM): 93.4%
- viability, T/C (second compound 1 µM, first compound 0.001 µM): 98.6%
- viability, T/C [19]: 88.6%
- viability, T/C [20]: 51.5%
- viability, T/C [21]: 7.18%
- viability, T/C [22]: 3.35%
- viability, T/C (second compound 3.16 µM, first compound 0.000316 µM): 97.2%
- viability, T/C (second compound 3.16 µM, first compound 0.001 µM): 89.5%
- viability, T/C [25]: 80.1%
- viability, T/C [26]: 26%
- viability, T/C [27]: 4.8%
- viability, T/C [28]: 2.64%
- viability, T/C (second compound 10 µM, first compound 0.000316 µM): 85.9%
- viability, T/C (second compound 10 µM, first compound 0.001 µM): 90%
- viability, T/C [31]: 65.6%
- viability, T/C [32]: 16.4%
- viability, T/C [33]: 3.2%
- viability, T/C [34]: 2.36%

SMILES: O=C(c1ccc(F)c(F)c1Nc1ccc(I)cc1F)N1CC(O)([C@@H]2CCCCN2)C1 + Cc1c(S(C)(=O)=O)c(-c2cc(F)cc(N3CCN(c4ccc(NS(=O)(=O)c5ccc(NC(CCN6CCC(C(=O)OCCCP(=O)(O)O)CC6)CSc6ccccc6)c(S(=O)(=O)C(F)(F)F)c5)cc4)CC3)c2)c(-c2ccc(Cl)cc2)n1C(C)C
- IC50 (second compound 0.0316 µM): > 1000 nM
- IC50 (second compound 0.1 µM): > 1000 nM
- IC50 (second compound 0.316 µM): > 1000 nM
- IC50 (second compound 1 µM): > 1000 nM
- IC50 (second compound 3.16 µM): > 1000 nM
- IC50 (second compound 10 µM): > 1000 nM
- viability, T/C [1]: 98.2%
- viability, T/C [2]: 102%
- viability, T/C [3]: 106%
- viability, T/C [4]: 99.6%
- viability, T/C [5]: 110%
- viability, T/C [6]: 113%
- viability, T/C [7]: 95.3%
- viability, T/C [8]: 101%
- viability, T/C [9]: 97.1%
- viability, T/C [10]: 102%
- viability, T/C [11]: 103%
- viability, T/C [12]: 99.8%
- viability, T/C [13]: 95.7%
- viability, T/C [14]: 93.6%
- viability, T/C [15]: 94.2%
- viability, T/C [16]: 106%
- viability, T/C [17]: 99%
- viability, T/C [18]: 104%
- viability, T/C [19]: 91.6%
- viability, T/C [20]: 89.5%
- viability, T/C [21]: 100%
- viability, T/C [22]: 98.9%
- viability, T/C [23]: 102%
- viability, T/C [24]: 97.1%
- viability, T/C [25]: 91.9%
- viability, T/C [26]: 92.1%
- viability, T/C [27]: 87.2%
- viability, T/C [28]: 99.8%
- viability, T/C [29]: 101%
- viability, T/C [30]: 93.4%
- viability, T/C [31]: 85.8%
- viability, T/C [32]: 81.3%
- viability, T/C [33]: 92.2%
- viability, T/C [34]: 85.6%
- viability, T/C [35]: 71.8%
- viability, T/C [36]: 67.6%
